What was measured:
Type in all cases: functional
UACC-257 = assay: Growth inhibition of human UACC257 cells assessed as cell growth at 5X10'-8 M after 48 hrs by sulforhodamine B assay; conditions: UACC-257, 48 h, read-out: Activity
HCT-15 = assay: Growth inhibition of human HCT15 cells assessed as cell growth at 5X10'-9 M after 48 hrs by sulforhodamine B assay; conditions: HCT-15, 48 h, read-out: Activity
LOX IMVI [1] = assay: Growth inhibition of human LOXIMVI cells assessed as cell growth at 5X10'-8 M after 48 hrs by sulforhodamine B assay; conditions: read-out: Activity
COLO 205 = assay: Growth inhibition of human COLO205 cells assessed as cell growth at 5X10'-8 M after 48 hrs by sulforhodamine B assay; conditions: COLO 205, 48 h, read-out: Activity
SW-620 [2] = assay: Growth inhibition of human SW620 cells assessed as cell growth at 5X10'-9 M after 48 hrs by sulforhodamine B assay; conditions: SW-620, 48 h, read-out: Activity
A498 = assay: Growth inhibition of human A498 cells assessed as cell growth at 5X10'-9 M after 48 hrs by sulforhodamine B assay; conditions: A498, 48 h, read-out: Activity
SK-MEL-5 = assay: Growth inhibition of human SK-MEL-5 cells assessed as cell growth at 5X10'-9 M after 48 hrs by sulforhodamine B assay; conditions: SK-MEL-5, 48 h, read-out: Activity
LOX IMVI [3] = assay: Growth inhibition of human LOXIMVI cells assessed as cell growth at 5X10'-7 M after 48 hrs by sulforhodamine B assay; conditions: read-out: Activity
RXF 393 = assay: Growth inhibition of human RXF393 cells assessed as cell growth at 5X10'-8 M after 48 hrs by sulforhodamine B assay; conditions: RXF 393, 48 h, read-out: Activity
UO-31 [4] = assay: Growth inhibition of human UO31 cells assessed as cell growth at 5X10'-7 M after 48 hrs by sulforhodamine B assay; conditions: UO-31, 48 h, read-out: Activity
MDA-MB-435 [5] = assay: Growth inhibition of human MDA-MB-435 cells assessed as cell growth at 5X10'-9 M after 48 hrs by sulforhodamine B assay; conditions: MDA-MB-435, 48 h, read-out: Activity
UO-31 [6] = assay: Growth inhibition of human UO31 cells assessed as cell growth at 5X10'-9 M after 48 hrs by sulforhodamine B assay; conditions: UO-31, 48 h, read-out: Activity
HCT-116 = assay: Growth inhibition of human HCT116 cells assessed as cell growth at 5X10'-8 M after 48 hrs by sulforhodamine B assay; conditions: HCT-116, 48 h, read-out: Activity
MDA-MB-231 [7] = assay: Growth inhibition of human MDA-MB-231 cells assessed as cell growth at 5X10'-9 M after 48 hrs by sulforhodamine B assay; conditions: MDA-MB-231, 48 h, read-out: Activity
IGROV-1 = assay: Growth inhibition of human IGROV1 cells assessed as cell growth at 5X10'-7 M after 48 hrs by sulforhodamine B assay; conditions: IGROV-1, 48 h, read-out: Activity
UO-31 [8] = assay: Growth inhibition of human UO31 cells assessed as cell growth at 5X10'-8 M after 48 hrs by sulforhodamine B assay; conditions: UO-31, 48 h, read-out: Activity
SK-MEL-2 = assay: Growth inhibition of human SK-MEL-2 cells assessed as cell growth at 5X10'-6 M after 48 hrs by sulforhodamine B assay; conditions: SK-MEL-2, 48 h, read-out: Activity
MDA-MB-435 [9] = assay: Growth inhibition of human MDA-MB-435 cells assessed as cell growth at 5X10'-6 M after 48 hrs by sulforhodamine B assay; conditions: MDA-MB-435, 48 h, read-out: Activity
MDA-MB-435 [10] = assay: Growth inhibition of human MDA-MB-435 cells assessed as cell growth at 5X10'-7 M after 48 hrs by sulforhodamine B assay; conditions: MDA-MB-435, 48 h, read-out: Activity
NCI-H522 = assay: Growth inhibition of human NCI-H522 cells assessed as cell growth at 5X10'-5 M after 48 hrs by sulforhodamine B assay; conditions: NCI-H522, 48 h, read-out: Activity
PC-3 [11] = assay: Growth inhibition of human PC3 cells assessed as cell growth at 5X10'-6 M after 48 hrs by sulforhodamine B assay; conditions: PC-3, 48 h, read-out: Activity
[12] = Growth inhibition of human NCI-ADR-RES cells assessed as cell growth at 5X10'-5 M after 48 hrs by sulforhodamine B assay; conditions: read-out: Activity
MDA-MB-435 [13] = assay: Growth inhibition of human MDA-MB-435 cells assessed as cell growth at 5X10'-8 M after 48 hrs by sulforhodamine B assay; conditions: MDA-MB-435, 48 h, read-out: Activity
HOP-92 = assay: Growth inhibition of human HOP92 cells assessed as cell growth at 5X10'-5 M after 48 hrs by sulforhodamine B assay; conditions: HOP-92, 48 h, read-out: Activity
HOP-62 = assay: Growth inhibition of human HOP62 cells assessed as cell growth at 5X10'-8 M after 48 hrs by sulforhodamine B assay; conditions: HOP-62, 48 h, read-out: Activity
NCI-H23 = assay: Growth inhibition of human NCI-H23 cells assessed as cell growth at 5X10'-5 M after 48 hrs by sulforhodamine B assay; conditions: NCI-H23, 48 h, read-out: Activity
T47D = assay: Growth inhibition of human T47D cells assessed as cell growth at 5X10'-7 M after 48 hrs by sulforhodamine B assay; conditions: read-out: Activity
ACHN = assay: Growth inhibition of human ACHN cells assessed as cell growth at 5X10'-9 M after 48 hrs by sulforhodamine B assay; conditions: read-out: Activity
SW-620 [14] = assay: Growth inhibition of human SW620 cells assessed as cell growth at 5X10'-6 M after 48 hrs by sulforhodamine B assay; conditions: SW-620, 48 h, read-out: Activity
NCI-H460 = assay: Growth inhibition of human NCI-H460 cells assessed as cell growth at 5X10'-7 M after 48 hrs by sulforhodamine B assay; conditions: NCI-H460, 48 h, read-out: Activity
MDA-MB-231 [15] = assay: Growth inhibition of human MDA-MB-231 cells assessed as cell growth at 5X10'-7 M after 48 hrs by sulforhodamine B assay; conditions: MDA-MB-231, 48 h, read-out: Activity
NCI-H322M = assay: Growth inhibition of human NCI-H322M cells assessed as cell growth at 5X10'-9 M after 48 hrs by sulforhodamine B assay; conditions: read-out: Activity
SF-268 = assay: Growth inhibition of human SF268 cells assessed as cell growth at 5X10'-7 M after 48 hrs by sulforhodamine B assay; conditions: SF-268, 48 h, read-out: Activity
[16] = Growth inhibition of human Hs 578T cells assessed as cell growth at 5X10'-7 M after 48 hrs by sulforhodamine B assay; conditions: read-out: Activity
DU-145 = assay: Growth inhibition of human DU145 cells assessed as cell growth at 5X10'-8 M after 48 hrs by sulforhodamine B assay; conditions: DU-145, 48 h, read-out: Activity
CCRF-CEM = assay: Growth inhibition of human CCRF-CEM cells assessed as cell growth at 5X10'-5 M after 48 hrs by sulforhodamine B assay; conditions: read-out: Activity
PC-3 [17] = assay: Growth inhibition of human PC3 cells assessed as cell growth at 5X10'-8 M after 48 hrs by sulforhodamine B assay; conditions: PC-3, 48 h, read-out: Activity

Compound | growth at 0.05 µM (UACC-257) [%] | growth at 0.005 µM (HCT-15) [%] | growth at 0.05 µM (LOX IMVI [1]) [%] | growth at 0.05 µM (COLO 205) [%] | growth at 0.005 µM (SW-620 [2]) [%] | growth at 0.005 µM (A498) [%] | growth at 0.005 µM (SK-MEL-5) [%] | growth at 0.5 µM (LOX IMVI [3]) [%] | growth at 0.05 µM (RXF 393) [%] | growth at 0.5 µM (UO-31 [4]) [%] | growth at 0.005 µM (MDA-MB-435 [5]) [%] | growth at 0.005 µM (UO-31 [6]) [%] | growth at 0.05 µM (HCT-116) [%] | growth at 0.005 µM (MDA-MB-231 [7]) [%] | growth at 0.5 µM (IGROV-1) [%] | growth at 0.05 µM (UO-31 [8]) [%] | growth at 5 µM (SK-MEL-2) [%] | growth at 5 µM (MDA-MB-435 [9]) [%] | growth at 0.5 µM (MDA-MB-435 [10]) [%] | growth at 50 µM (NCI-H522) [%] | also measured
COc1cc(-c2nn(-c3cccc(NC(=O)c4cccc(C(F)(F)F)c4)c3)cc2-c2ccncc2)ccc1Cl | 99 | 98 | 91 | 101 | 99 | 78 | 98 | 84 | 99 | 62 | 96 | 82 | 96 | 102 | 86 | 75 | 8 | -56 | 69 | -24 | growth at 5 µM (PC-3 [11]): 17%; growth at 50 µM [12]: -9%; growth at 0.05 µM (MDA-MB-435 [13]): 100%; growth at 50 µM (HOP-92): -22%; growth at 0.05 µM (HOP-62): 97%; growth at 50 µM (NCI-H23): -3%; growth at 0.5 µM (T47D): 84%; growth at 0.005 µM (ACHN): 103%; growth at 5 µM (SW-620 [14]): 30%; growth at 0.5 µM (NCI-H460): 90%; growth at 0.5 µM (MDA-MB-231 [15]): 77%; growth at 0.005 µM (NCI-H322M): 91%; growth at 0.5 µM (SF-268): 88%; growth at 0.5 µM [16]: 74%; growth at 0.05 µM (DU-145): 95%; growth at 50 µM (CCRF-CEM): 4%; growth at 0.05 µM (PC-3 [17]): 99%
O=C(Nc1cccc(-n2cc(-c3ccncc3)c(-c3ccc(Cl)c(O)c3)n2)c1)c1ccc(N2CCOCC2)c(C(F)(F)F)c1 | 104 | 94 | 96 | 102 | 102 | 92 | 101 | 92 | 101 | 112 | 93 | 88 | 97 | 96 | 112 | 88 | 34 | 28 | 85 | -2 | growth at 5 µM (PC-3 [11]): 29%; growth at 50 µM [12]: 16%; growth at 0.05 µM (MDA-MB-435 [13]): 93%; growth at 50 µM (HOP-92): -15%; growth at 0.05 µM (HOP-62): 101%; growth at 50 µM (NCI-H23): -13%; growth at 0.5 µM (T47D): 105%; growth at 0.005 µM (ACHN): 102%; growth at 5 µM (SW-620 [14]): 2%; growth at 0.5 µM (NCI-H460): 98%; growth at 0.5 µM (MDA-MB-231 [15]): 67%; growth at 0.005 µM (NCI-H322M): 100%; growth at 0.5 µM (SF-268): 104%; growth at 0.5 µM [16]: 84%; growth at 0.05 µM (DU-145): 97%; growth at 50 µM (CCRF-CEM): 14%; growth at 0.05 µM (PC-3 [17]): 96%
O=C(Nc1cccc(-n2cc(-c3ccncc3)c(-c3ccc(Cl)c(O)c3)n2)c1)Nc1cc(C(F)(F)F)cc(C(F)(F)F)c1 | 89 | 98 | 100 | 103 | 99 | 79 | 104 | 76 | 89 | 62 | 98 | 97 | 102 | 94 | 71 | 89 | -28 | -31 | 79 | -82 | growth at 5 µM (PC-3 [11]): -3%; growth at 50 µM [12]: -56%; growth at 0.05 µM (MDA-MB-435 [13]): 96%; growth at 50 µM (HOP-92): -89%; growth at 0.05 µM (HOP-62): 97%; growth at 50 µM (NCI-H23): -75%; growth at 0.5 µM (T47D): 88%; growth at 0.005 µM (ACHN): 103%; growth at 5 µM (SW-620 [14]): 1%; growth at 0.5 µM (NCI-H460): 45%; growth at 0.5 µM (MDA-MB-231 [15]): 74%; growth at 0.005 µM (NCI-H322M): 108%; growth at 0.5 µM (SF-268): 73%; growth at 0.5 µM [16]: 82%; growth at 0.05 µM (DU-145): 109%; growth at 50 µM (CCRF-CEM): -18%; growth at 0.05 µM (PC-3 [17]): 89%

From ChEMBL document CHEMBL2440076, “New triarylpyrazoles as broad-spectrum anticancer agents: design, synthesis, and biological evaluation” (Eur J Med Chem, 2013)
